Experimental data from patent publication US20260356800A1, “POLYMORPH OF PHENYL PYRROLE HYDRAZINE CARBOXIMIDAMIDE COMPOUND” (SYNACT PHARMA ApS, priority 2022, published 2026).
Converted amounts (≈) assume the structure as drawn. Structures can show the parent of a compound that is named as a salt.

Tests used:
[1] = tested on: cAMP generation (MC1R and MC3R); settings: cited from earlier work
[2] = Thermodynamic solubility in buffer at 24 h (HPLC of supernatant); assay type: physicochemical; settings: for solubility at 24 h: 0.2 m hcl/kcl, as free-base
Source text: The solubility of a compound may be assessed by adding a surplus of the compound to a volume of solvent such that some of the compound is not dissolved, then isolating the non-dissolved compound and measuring the amount. The solubility of a compound may alternatively be assessed by adding a surplus of the compound to a volume of solvent such that some of the compound is not dissolved, and then measure the amount of compound in solution. Measuring the amount of compound in solution may be done using any suitable method, such as HPLC, titration, or spectrometry.
The solubility of AP1189 freebase, tosylate salt and fumarate salt were assessed in buffer solutions. An amount of the compound was suspended in buffer and agitated at ambient temperature for 24 hr, before the supernatant was sampled and analysed for the content of AP1189 by HPLC.

MC3R = settings: biased dual agonist; cited from earlier work
[3] = tested on: MC1R-induced melanogenesis; settings: cited from earlier work
MC1R [4] = settings: biased dual agonist; cited from earlier work
Ca^2± mobilisation = settings: alternative pathways; cited from earlier work
MC1R [5] = settings: cited from earlier work
ERK1/2-phosphorylation = settings: alternative pathways; cited from earlier work
[6] = Initial polymorphism assessment: solubility of AP1189 freebase in solvent systems (aliquot addition); assay type: physicochemical; settings: ambient, gently heated to ca. 40 °C if solid remained
Procedure: An initial polymorphism assessment was carried out in order to identify any potential alternate forms. The initial polymorphism assessment was carried out as follows: To ca. 7 mg of freebase Pattern 1 from DCM evaporation the appropriate solvent system was added in aliquots of 50 μL and if solid remained the vial was gently heated to ca. 40 °C to aid dissolution. Solvent addition was continued until the material had fully dissolved or 1 mL of the appropriate solvent system had been added (<10 mg/mL). Anti-solvent (t-BME) was added dropwise (with stirring) at ambient. If the solutions were already present as slurries prior to addition of anti-solvent, no anti-solvent was added. The experiments were temperature cycled between ambient temperature and 40 °C in 4 hour cycles for ca. 24 h with agitation. Slurries were isolated by centrifugation and solutions allowed to evaporate at ambient temperature. XRPD analysis was carried out for the solids which were obtained.

In the case of `NC(N)=N/N=C/C=C/c1cccn1-c1ccccc1[N+](=O)[O-]` [AP1189, 2-{3-[1-(2-nitrophenyl)-1H-pyrrol-2-yl]prop-2-en-1-ylidine}hydrazine-1-carboximidamide], the “canonical cAMP generation” value [1] is given as “does not provoke canonical cAMP generation”, the “Solubility at acidic conditions (in words)” value ([2]; acidic conditions) is given as “highly soluble at acidic conditions” and the “Solubility at pH 1.2 (in words)” value [2] is given as “high solubility at pH 1.2”. The “Solubility at pH 1.2 (in words)” value ([2]; listed as AP1189 free base) was “high solubility at pH 1.2 compared to the test compound AP1189 fumarate Pattern 1”, the “agonism at MC3R” value (MC3R) was “biased dual agonist at receptors MC1R and MC3R” and the MC1R-induced melanogenesis [3] was “no MC1R-induced melanogenesis”. The “agonism at MC1R” value (MC1R [4]) was “biased dual agonist at receptors MC1R and MC3R”, the “Ca2+ mobilisation” value (Ca^2± mobilisation) was “appear to induce alternative pathways including ERK1/2-phosphorylation and Ca^2 mobilisation” and the “binding to MC1R” value (MC1R [5]) was “shown to bind the MC1R”. For the same compound, the ERK1/2-phosphorylation (ERK1/2-phosphorylation) was “appear to induce alternative pathways including ERK1/2-phosphorylation”, the solubility ([6]; Water) was < 7000 µg/mL and the solubility ([6]; organic solvent or mixture, 2-Methyl THF) was ≥ 10000 µg/mL. For the same compound, the solubility ([6]; organic solvent or mixture, 2-Propanol) was < 7000 µg/mL, the solubility ([6]; organic solvent or mixture, 90% 2-Propanol: 10% Water (% v/v) (calculated aw 0.6)) was ≥ 10000 µg/mL and the solubility ([6]; organic solvent or mixture, 98.5% Ethanol : 1.5% Water (% v/v) (calculated aw 0.2)) was ≥ 15000 µg/mL. For the same compound, the solubility ([6]; organic solvent or mixture, Acetone) was ≥ 49000 µg/mL, the solubility ([6]; organic solvent or mixture, Acetonitrile) was ≥ 27000 µg/mL and the solubility ([6]; organic solvent or mixture, Dichloromethane) was < 7000 µg/mL. The solubility ([6]; organic solvent or mixture, Dimethylsulfoxide) was ≥ 136000 µg/mL, the solubility ([6]; organic solvent or mixture, Ethanol) was ≥ 13000 µg/mL and the solubility ([6]; organic solvent or mixture, Ethyl Acetate) was < 7000 µg/mL. For the same compound, the solubility ([6]; organic solvent or mixture, Heptane) was < 7000 µg/mL, the solubility ([6]; organic solvent or mixture, Methanol) was ≥ 142000 µg/mL and the solubility ([6]; organic solvent or mixture, Methylethyl Ketone) was ≥ 17000 µg/mL. The solubility ([6]; organic solvent or mixture, Methylisobutyl Ketone) was < 7000 µg/mL, the solubility ([6]; organic solvent or mixture, Tetrahydrofuran) was ≥ 35000 µg/mL and the solubility ([6]; organic solvent or mixture, Toluene) was < 7000 µg/mL. The solubility ([6]; organic solvent or mixture, tert-Butylmethyl ether) was < 7000 µg/mL.
Compound `NC(N)=N/N=C/C=C/c1cccn1-c1ccccc1[N+](=O)[O-]` [Fumarate Salt Pattern 1] has a solubility at 24 h ([2]; pH 1.29, 0.2 M HCl/KCl, initial pH 1.35 → 1.18, 24 h pH 1.29, input 38 mM, ambient temperature) of 10.9 mM.
In the case of `NC(N)=N/N=C/C=C/c1cccn1-c1ccccc1[N+](=O)[O-]` [AP1189 freebase Pattern 1, 2-{3-[1-(2-nitrophenyl)-1H-pyrrol-2-yl]prop-2-en-1-ylidine}hydrazine-1-carboximidamide], the solubility at 24 h ([2]; pH 1.29, 0.2 M HCl/KCl, initial pH 2.05 → 1.24, 24 h pH 1.29, input 83* mM (estimated), ambient temperature) is reported as > 44.1 mM, the solubility at 24 h ([2]; pH 1.54, FaSSGF (Fasted State Simulated Gastric Fluid), initial pH 1.60, 24 h pH 1.54, ambient temperature) is reported as 13.9 mM (≈ 4140 µg/mL) and the “Solubility at pH 4.5 (in words)” value ([2]; pH 4.5, compared to AP1189 fumarate Pattern 1) is reported as “high solubility at pH 4.5 compared to test compound AP1189 fumarate Pattern 1”.
With `NC(N)=N/N=C/C=C/c1cccn1-c1ccccc1[N+](=O)[O-]` [Tosylate Salt Pattern 1, 2-{3-[1-(2-nitrophenyl)-1H-pyrrol-2-yl]prop-2-en-1-ylidine}hydrazine-1-carboximidamide tosylate] the solubility at 24 h ([2]; pH 1.26, 0.2 M HCl/KCl, initial pH 1.22, 24 h pH 1.26, input 31 mM, ambient temperature) was 0.31 mM and the “Solubility at low pH (in words)” value ([2]; low pH, e.g. pH 1.2-1.3 or pH 4.5) was “low solubility at low pH”.
